Source: patent US7405235B2, “Transcription factor modulating compounds and methods of use thereof” (Paratek Pharmaceuticals, Inc., priority 2001, dated 2008)

Target: MarA (Escherichia coli, UniProt P0ACH5)
Experiment: MarA-activated selective marker (ccdB) cell survival assay, Example 2
Format: cell-based
Set-up: key: * indicates good inhibition of MarA; ** indicates very good inhibition of MarA
Settings: inhibition of MarA: cell survival under conditions of MarA expression (ccdB under MarA-activated promoter)
Excerpt: In the absence of Mar A, the expression of the selective marker would be silent. For example, in the case of regulation of the cytotoxic gene ccdB, the gene would be silent and the cells would survive. Synthesis of MarA from an inducible plasmid in a suitable host would result in the activation of the MarA responsive activatable promoter and expression of the selective marker. In the case of ccdB, the gene would be expressed and result in cell death. Compounds that inhibit MarA would be identified as those that permit cell survival under conditions of MarA expression.
In the absence of MarA, the expression of the selective marker is silent and cells survive. Synthesis of MarA from an inducible plasmid in a bacterial or yeast cell leads to the activation of the inaA promoter, expression of ccdB, and subsequently results in cell death. Compounds that inhibit MarA are those that permit cell survival under conditions of MarA expression. In Table 4, * indicates good inhibition of MarA and ** indicates very good inhibition of MarA.

MarA, sequence (P0ACH5 whole entry, looked up): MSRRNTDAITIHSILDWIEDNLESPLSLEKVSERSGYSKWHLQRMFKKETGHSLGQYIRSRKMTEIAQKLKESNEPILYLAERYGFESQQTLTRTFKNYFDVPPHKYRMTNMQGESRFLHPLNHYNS

Row | Compound | MarA inhibition class
1 | Cn1c(=O)c2c3oc(-c4ccc([N+](=O)[O-])cc4)nc3c(=O)n(-c3ccccc3)c2n(C)c1=O [AK, 6,8-Dimethyl-2-(4-nitro-phenyl)-5-phenyl-5H,6H-1-oxa-3,5,6,8-tetraaza-cyclopenta[a]naphthalene-4,7,9-trione] | **
2 | CCOC(=O)C1=C(C)N=c2sc(=Cc3ccc(-c4cccc(C(=O)O)c4)o3)c(=O)n2C1c1c(OC)ccc2ccccc12 (centres unmarked) [N, 2-[5-(3-Carboxy-phenyl)-furan-2-ylmethylene]-5-(2-methoxy-naphthalen-1-yl)-7-methyl-3-oxo-2,3-dihydro-5H-thiazolo[3,2-a]pyrimidine-6-carboxylicacid ethyl ester] | **
3 | CCSc1nnc2c(n1)OC(c1ccc(O)c(O)c1)Nc1ccccc1-2 (centres unmarked) [E, 4-(3-Ethylsulfanyl-6,7-dihydro-5-oxa-1,2,4,7-tetraza-dibenzo[a,c]cyclohepten-6-yl)-benzene-1,2-diol] | *
4 | COC(=O)c1ccccc1NC(=O)CSc1nnc(-c2ccco2)n1-c1ccccc1 [AC, 2-[2-(5-Furan-2-yl-4-phenyl-4H-[1,2,4]triazol-3-ylsulfanyl)-acetylamino]-benzoic acid methyl ester] | *
5 | CCOC(=O)C1=C(C)N=c2sc(=Cc3ccc(-c4ccc(C)c([N+](=O)[O-])c4)o3)c(=O)n2C1c1ccc(N(C)C)cc1 (centres unmarked) [X, 5-(4-Dimethylamino-phenyl)-7-methyl-2-[5-(4-methyl-3-nitro-phenyl)-furan-2-ylmethylene]-3-oxo-2,3-dihydro-5H-thiazolo[3,2-a]pyrimidine-6-carboxylicacid ethyl ester] | **
6 | N#Cc1c(-c2ccc3c(c2)OCO3)c(C#N)c2nc3ccccc3n2c1N [AB, 1-Amino-3-benzo[1,3]dioxol-5-yl-benzo[4,5]imidazo[1,2-a]pyridine-2,4-dicarbonitrile] | **
7 | O=C1C=Cc2ccccc2/C1=N/Oc1ccc2noc3c2c1C(=O)c1ccccc1-3 [Z, [1,2]Naphthoquinone 1-[O-(6-oxo-6H-anthra[1,9-cd]isoxazol-5-yl)-oxime]] | *
8 | COn1c(-c2ccc(C)cc2)nc2ncccc21 [BF, 1-methoxy-2-(4-methylphenyl)-1H-imidazo[4,5-b]pyridine] | *
9 | c1ccc(COn2c(-c3ccccc3)nc3ncccc32)cc1 [AX, 1-(benzyloxy)-2-phenyl-1H-imidazo[4,5-b]pyridine] | **
10 | O=c1cc(-c2ccc(O)cc2)oc2ccccc12 [BG, 2-(4-hydroxyphenyl)-4H-chromen-4-one] | *
11 | O=c1/c(=C\c2c[nH]nc2-c2ccccc2)sc2nc3ccccc3n12 [M, 2-(3-Phenyl-1H-pyrazol-4-ylmethylene)-benzo[4,5]imidazo[2,1-b]thiazol-3-one] | **
12 | CSc1nnc2c(n1)OC(c1ccc(I)o1)Nc1ccccc1-2 (centres unmarked) [A, 6-(5-Iodo-furan-2-yl)-3-methylsulfanyl-6,7-dihydro-5-oxa-1,2,4,7-tetraaza-dibenzo[a,c]cycloheptene] | **
13 | O=[N+]([O-])c1ccc2nc(-c3ccccc3)n(OCc3ccccc3)c2c1 [AI, 1-Benzyloxy-6-nitro-2-phenyl-1H-benzoimidazole] | **
14 | CCCCSc1nnc2c(n1)OC(c1ccc(OCC)cc1)Nc1ccccc1-2 (centres unmarked) [J, 3-Butylsulfanyl-6-(4-ethoxy-phenyl)-6,7-dihydro-5-oxa-1,2,4,7-tetraaza-dibenzo[a,c]cycloheptene] | *
15 | O=C(O)COn1c(-c2ccccc2)nc2ccc([N+](=O)[O-])cc21 [AH, (6-Nitro-2-phenyl-benzoimidazol-1-yloxy)-acetic acid] | **
16 | C=CCOc1ccc(C2Nc3ccccc3-c3nnc(SCCCC)nc3O2)cc1 (centres unmarked) [I, 6-(4-Allyloxy-phenyl)-3-butylsulfanyl-6,7-dihydro-5-oxa-1,2,4,7-tetraaza-dibenzo[a,c]cycloheptene] | **
17 | CCOC(=O)C(C(N)=O)C1(O)OC(c2ccc(C)cc2)=CC1=O (centres unmarked) [BC, 2-(2-Hydroxy-3-oxo-5-p-tolyl-2,3-dihydro-furan-2-yl)-malonamic acid ethylester] | *
18 | CCCSc1nnc2c(n1)OC(c1ccc(-c3cccc([N+](=O)[O-])c3)o1)Nc1ccccc1-2 (centres unmarked) [L, 6-[5-(3-Nitro-phenyl)-furan-2-yl]-3-propylsulfanyl-6,7-dihydro-5-oxa-1,2,4,7-tetraaza-dibenzo[a,c]cycloheptane] | **
19 | CCOC(=O)C1=C(C)N=c2sc(=Cc3ccc(-c4ccc([N+](=O)[O-])cc4C)o3)c(=O)n2C1c1ccc2c(c1)OCO2 (centres unmarked) [P, 5-Benzo[1,3]dioxol-5-yl-7-methyl-2-[5-(2-methyl-4-nitro-phenyl)-furan-2-ylmethylene]-3-oxo-2,3-dihydro-5H-thiazolo[3,2-a]pyrimidine-6-carboxylicacid ethyl ester] | *

Row | Compound | MarA inhibition class
20 | Cc1cc2nc3s/c(=C/c4c[nH]nc4-c4ccccc4)c(=O)n3c2cc1C [AD, 6,7-Dimethyl-2-(3-phenyl-1H-pyrazol-4-ylmethylene)-benzo[4,5]imidazo[2,1-b]thiazol-3-one] | *
21 | O=C1C(=C2NC(c3ccccn3)C3C(=O)N(c4ccccc4)C(=O)C23)C(=O)c2ccccc21 (centres unmarked) [BB, 4-(1,3-dioxo-1,3-dihydro-2H-inden-2-yliden)-2-phenyl-6-(2-pyridinyl)tetrahydro pyrrolo[3,4-c]pyrrole-1,3(2H,3aH)-dione] | *
22 | O=c1cc(-c2ccc(F)cc2)oc2ccccc12 [BE, 2-(4-fluorophenyl)-4H-chromen-4-one] | *
23 | CN(C)c1ccc(-c2cc(=O)c3ccccc3o2)cc1 [AW, 2-[4-(dimethylamino)phenyl]-4H-chromen-4-one] | **
24 | CSc1nnc2c(n1)OC(c1ccc(-c3ccc([N+](=O)[O-])cc3)o1)Nc1ccccc1-2 (centres unmarked) [D, 3-Methylsulfanyl-6-[5-(4-nitro-phenyl)-furan-2-yl]-6,7-dihydro-5-oxa-1,2,4,7-tetraaza-dibenzo[a,c]cycloheptene] | *
25 | CCOC(=O)C1=C(C)N=c2s/c(=C/c3ccc(-c4cccc(C(F)(F)F)c4)o3)c(=O)n2C1c1ccccc1 (centres unmarked) [U, 7-Methyl-3-oxo-5-phenyl-2-[5-(3-trifluoromethyl-phenyl)-furan-2-ylmethylene]-2,3-dihydro-5H-thiazolo[3,2-a]pyrimidine-6-carboxylicacid ethyl ester] | **
26 | COc1ccc2c(=O)cc(-c3ccccc3)oc2c1 [BA, 7-methoxy-2-phenyl-4H-chromen-4-one] | *
27 | O=c1cc(-c2ccccc2)oc2ccc(F)cc12 [AZ, 6-fluoro-2-phenyl-4H-chromen-4-one] | **
28 | c1ccc(CSc2ncc(-c3nnnn3-c3ccccc3)c(-c3ccccc3)n2)cc1 [AY, 2-(benzylthio)-4-phenyl-5-(1-phenyl-1H-1,2,3,4-tetrazol-5-yl)pyrimidine] | **
29 | Cc1ccc(-c2nc3c(=O)n(-c4ccccc4)c4c(c(=O)n(C)c(=O)n4C)c3o2)cc1 [AL, 6,8-Dimethyl-5-phenyl-2-p-tolyl-5H,6H-1-oxa-3,5,6,8-tetraaza-cyclopenta[a]naphthalene-4,7,9-trione] | *
30 | CSc1cccc(NC(=O)CSc2nnc(-c3ccc4nonc4c3)n2C)c1 [AE, 2-(5-Benzo[1,2,5]oxadiazol-5-yl-4-methyl-4H-[1,2,4]triazol-3-ylsulfanyl)-N-(3-methylsulfanyl-phenyl)-acetamide] | *
31 | O=[N+]([O-])c1ccc2nc(-c3ccccc3)n(OCc3cccc(C(F)(F)F)c3)c2c1 [AG, 6-Nitro-2-phenyl-1-(3-trifluoromethyl-benzyloxy)-1H-benzoimidazole] | **
32 | O=C1C(=C2NC(c3ccccn3)C3C(=O)N(c4ccccc4)C(=O)C23)C(=O)c2ccccc21 (centres unmarked) [AF, 4-(1,3-Dioxo-indan-2-ylidene)-2-phenyl-6-pyridin-2-yl-tetrahydro-pyrrolo[3,4-c]pyrrole-1,3-dione] | **
33 | CCCCSc1nnc2c(n1)OC(c1ccc(OC)cc1OC)Nc1ccccc1-2 (centres unmarked) [H, 3-Butylsulfanyl-6-(2,4-dimeethoxy-phenyl)-6,7-dihydro-5-oxa-1,2,4,7-tetraaza-dibenzo[a,c]cycloheptene] | *
34 | CCOC(=O)C1=C(C)N=c2sc(=Cc3ccc(-c4cccc(C(=O)O)c4)o3)c(=O)n2C1c1ccc(N(C)C)cc1 (centres unmarked) [W, 2-[5-(3-Carboxy-phenyl)-furan-2-ylmethylene]-5-(4-dimethylamino-phenyl)-7-methyl-3-oxo-2,3-dihydro-5H-thiazolo[3,2-a]pyrimidine-6-carboxylicacid ethyl ester] | **
35 | Cc1ccc(COn2c(-c3ccccc3)nc3ccc([N+](=O)[O-])cc32)cc1 [AJ, 1-(4-Methyl-benzyloxy)-6-nitro-2-phenyl-1H-benzoimidazole] | *
36 | O=C(O)COn1c(-c2ccccc2)nc2ccc([N+](=O)[O-])cc21 [BD, 2-[(6-nitro-2-phenyl-1H-1,3-benzimidazol-1-yl)oxy]acetic acid] | *
37 | CCCSc1nnc2c(n1)OC(c1ccc(OCc3ccccc3)cc1)Nc1ccccc1-2 (centres unmarked) [F, 6-(4-Benzyloxy-phenyl)-3-propylsulfanyl-6,7-dihydro-5-oxa-1,2,4,7-tetraaza-dibenzo[a,c]cycloheptene] | **
38 | CSc1nnc2c(n1)OC(c1ccc([N+](=O)[O-])o1)Nc1ccccc1-2 (centres unmarked) [C, 3-Methylsulfanyl-6-(5-nitro-furan-2-yl)-6,7-dihydro-5-oxa-1,2,4,7-tetraaza-dibenzo[a,c]cycloheptene] | *
